Source: patent publication US10815230B2, “Casein kinase 1 delta inhibitor” (ELECTROPHORETICS LIMITED, priority 2015, dated 2020)

Key:
Format in all cases: biochemical
[1] = biological target: CK1d (casein kinase 1 delta) (Homo sapiens, UniProt P48730); assay: Kinase selectivity, % remaining activity and IC50; conditions: 10 μM ATP; for IC50: casein kinase 1 delta, 10-dose, 3 fold serial dilution
Experimental: (§1) A two-tier strategy to determine the selectivity of compound A was applied: first, the compound was tested at a single concentration (in duplicate) to determine the %-remaining activity of the target kinase. Subsequently, the IC50 of compound A and comparative compounds for casein kinase 1 delta were determined.
(§2) Compounds were tested in single dose duplicate mode at a concentration of 10 μM (in DMSO) and reactions were carried out at 10 μM ATP, Table 3 reports the % of remaining activity (relative to DMSO).
Control compound GW5074 (Tocris®) was tested starting at 20 μM. Reactions were carried out at 10 μM ATP.

CK1a1 = CK1a1 (Homo sapiens, UniProt P48729); assay: Kinase selectivity, % remaining activity; conditions: CK1a1, 10 μM compound, 10 μM ATP, duplicate
CK1a1, sequence (P48729 whole entry): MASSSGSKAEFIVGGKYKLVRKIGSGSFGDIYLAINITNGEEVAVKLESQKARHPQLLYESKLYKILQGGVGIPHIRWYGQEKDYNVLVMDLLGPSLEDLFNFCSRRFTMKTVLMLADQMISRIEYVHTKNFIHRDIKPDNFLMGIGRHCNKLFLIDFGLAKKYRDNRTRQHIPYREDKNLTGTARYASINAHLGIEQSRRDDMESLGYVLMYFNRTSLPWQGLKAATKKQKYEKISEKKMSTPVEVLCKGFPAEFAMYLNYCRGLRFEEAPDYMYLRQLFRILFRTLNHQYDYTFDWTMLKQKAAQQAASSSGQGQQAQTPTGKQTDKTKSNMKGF
Experimental: as §2

ALK5/TGFBR1 = biological target: T1, ALK5/TGFBR1 (Homo sapiens, UniProt P36897); assay: Kinase selectivity, % remaining activity; conditions: 10 μM compound, 10 μM ATP, duplicate
T1 sequence (P36897 34-503): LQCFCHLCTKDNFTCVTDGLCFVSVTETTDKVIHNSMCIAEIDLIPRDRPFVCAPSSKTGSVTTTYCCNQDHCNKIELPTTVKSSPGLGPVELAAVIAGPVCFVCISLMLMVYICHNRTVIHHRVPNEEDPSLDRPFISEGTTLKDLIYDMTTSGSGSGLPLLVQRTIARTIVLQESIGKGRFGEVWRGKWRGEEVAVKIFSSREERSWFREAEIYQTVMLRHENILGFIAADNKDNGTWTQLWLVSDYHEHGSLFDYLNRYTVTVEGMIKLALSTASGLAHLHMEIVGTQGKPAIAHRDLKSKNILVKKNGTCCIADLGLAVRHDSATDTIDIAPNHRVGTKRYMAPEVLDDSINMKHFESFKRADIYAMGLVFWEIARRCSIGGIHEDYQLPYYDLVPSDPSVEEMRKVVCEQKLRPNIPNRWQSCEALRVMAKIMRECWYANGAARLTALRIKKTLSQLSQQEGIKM
Experimental: as §1, §2

CLK2 = CLK2 (Homo sapiens, UniProt P49760); assay: Kinase selectivity, % remaining activity; conditions: 10 μM compound, 10 μM ATP, duplicate
CLK2, sequence (P49760 whole entry): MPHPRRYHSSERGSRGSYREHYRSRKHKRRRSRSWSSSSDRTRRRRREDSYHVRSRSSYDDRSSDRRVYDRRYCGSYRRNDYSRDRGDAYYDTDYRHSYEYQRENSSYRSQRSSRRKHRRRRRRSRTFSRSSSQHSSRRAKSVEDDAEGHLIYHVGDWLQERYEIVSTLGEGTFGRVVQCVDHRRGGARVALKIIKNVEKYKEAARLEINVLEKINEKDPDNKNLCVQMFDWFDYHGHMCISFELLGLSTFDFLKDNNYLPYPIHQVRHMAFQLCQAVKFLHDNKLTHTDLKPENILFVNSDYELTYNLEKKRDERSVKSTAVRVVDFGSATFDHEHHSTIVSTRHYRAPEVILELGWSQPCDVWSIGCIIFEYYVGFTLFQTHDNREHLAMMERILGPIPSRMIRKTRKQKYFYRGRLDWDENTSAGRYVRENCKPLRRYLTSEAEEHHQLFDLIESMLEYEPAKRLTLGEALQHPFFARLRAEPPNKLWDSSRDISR
Experimental: as §1, §2

RIPK2 = RIPK2 (Homo sapiens, UniProt O43353); assay: Kinase selectivity, % remaining activity; conditions: 10 μM compound, 10 μM ATP, duplicate
Experimental: as §1, §2

KDR/VEGFR2 = KDR/VEGFR2 (Homo sapiens, UniProt P35968); assay: Kinase selectivity, % remaining activity; conditions: 10 μM compound, 10 μM ATP, duplicate
Experimental: as §1, §2

LCK = LCK (Homo sapiens, UniProt P06239); assay: Kinase selectivity, % remaining activity; conditions: 10 μM compound, 10 μM ATP, duplicate
Experimental: as §1, §2

EPHA2 = EPHA2 (Homo sapiens, UniProt P29317); assay: Kinase selectivity, % remaining activity; conditions: 10 μM compound, 10 μM ATP, duplicate
Experimental: as §1, §2

PDK1/PDPK1 = biological target: T2, PDK1/PDPK1 (Homo sapiens, UniProt O15530); assay: Kinase selectivity, % remaining activity; conditions: 10 μM compound, 10 μM ATP, duplicate
T2 sequence (O15530 1-556): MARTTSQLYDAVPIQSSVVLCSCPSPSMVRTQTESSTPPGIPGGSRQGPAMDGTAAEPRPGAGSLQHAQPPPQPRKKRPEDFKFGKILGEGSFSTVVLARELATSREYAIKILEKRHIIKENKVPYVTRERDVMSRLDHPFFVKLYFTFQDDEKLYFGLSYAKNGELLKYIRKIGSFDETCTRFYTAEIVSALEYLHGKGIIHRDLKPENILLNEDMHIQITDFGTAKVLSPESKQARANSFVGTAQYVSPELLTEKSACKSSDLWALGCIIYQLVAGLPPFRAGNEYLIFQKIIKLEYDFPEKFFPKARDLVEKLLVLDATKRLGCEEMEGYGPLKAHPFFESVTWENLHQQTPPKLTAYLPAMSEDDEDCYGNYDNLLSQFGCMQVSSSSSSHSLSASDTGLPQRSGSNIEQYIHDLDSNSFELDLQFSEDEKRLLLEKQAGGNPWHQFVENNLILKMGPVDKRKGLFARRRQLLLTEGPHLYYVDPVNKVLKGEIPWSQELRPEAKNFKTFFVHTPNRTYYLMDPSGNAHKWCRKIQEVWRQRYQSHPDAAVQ
Experimental: as §1, §2

PKA = PKA (Homo sapiens, UniProt P17612); assay: Kinase selectivity, % remaining activity; conditions: 10 μM compound, 10 μM ATP, duplicate
Experimental: as §1, §2

CK1g3 = CK1g3 (Homo sapiens, UniProt Q9Y6M4); assay: Kinase selectivity, % remaining activity; conditions: 10 μM compound, 10 μM ATP, duplicate
CK1g3, sequence (Q9Y6M4 whole entry): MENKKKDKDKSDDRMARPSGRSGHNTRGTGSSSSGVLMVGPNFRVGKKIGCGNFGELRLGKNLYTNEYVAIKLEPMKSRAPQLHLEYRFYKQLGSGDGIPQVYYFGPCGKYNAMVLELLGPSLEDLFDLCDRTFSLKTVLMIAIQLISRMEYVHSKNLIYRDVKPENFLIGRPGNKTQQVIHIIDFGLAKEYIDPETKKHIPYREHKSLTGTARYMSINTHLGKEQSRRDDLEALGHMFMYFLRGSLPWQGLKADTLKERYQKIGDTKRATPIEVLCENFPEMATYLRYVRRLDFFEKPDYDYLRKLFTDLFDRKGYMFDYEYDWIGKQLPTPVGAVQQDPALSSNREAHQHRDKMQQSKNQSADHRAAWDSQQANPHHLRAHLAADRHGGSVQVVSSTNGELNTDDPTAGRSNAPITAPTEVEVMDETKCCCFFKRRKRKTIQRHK
Experimental: as §1, §2

JNK2 = JNK2 (Homo sapiens, UniProt P45984); assay: Kinase selectivity, % remaining activity; conditions: 10 μM compound, 10 μM ATP, duplicate
Experimental: as §1, §2

CK1g1 = CK1g1 (Homo sapiens, UniProt Q9HCP0); assay: Kinase selectivity, % remaining activity; conditions: 10 μM compound, 10 μM ATP, duplicate
Experimental: as §1, §2

YES/YES1 = YES/YES1 (Homo sapiens, UniProt P07947); assay: Kinase selectivity, % remaining activity; conditions: 10 μM compound, 10 μM ATP, duplicate
YES/YES1, sequence (P07947 whole entry): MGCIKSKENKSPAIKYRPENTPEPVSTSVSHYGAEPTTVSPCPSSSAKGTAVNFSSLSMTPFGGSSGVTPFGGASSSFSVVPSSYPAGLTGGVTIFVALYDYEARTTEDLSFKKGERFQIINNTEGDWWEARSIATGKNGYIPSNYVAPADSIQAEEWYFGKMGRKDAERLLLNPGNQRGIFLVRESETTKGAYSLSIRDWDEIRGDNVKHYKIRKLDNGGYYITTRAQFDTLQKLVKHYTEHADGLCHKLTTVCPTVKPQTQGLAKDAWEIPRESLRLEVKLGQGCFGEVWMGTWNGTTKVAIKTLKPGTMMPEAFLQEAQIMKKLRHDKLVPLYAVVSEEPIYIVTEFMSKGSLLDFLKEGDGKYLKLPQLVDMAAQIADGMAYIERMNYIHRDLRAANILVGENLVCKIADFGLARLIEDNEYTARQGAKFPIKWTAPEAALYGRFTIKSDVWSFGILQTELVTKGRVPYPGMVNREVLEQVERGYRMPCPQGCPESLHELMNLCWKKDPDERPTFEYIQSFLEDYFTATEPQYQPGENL
Experimental: as §1, §2

PKCb2 = PKCb2 (Homo sapiens, UniProt P05771); assay: Kinase selectivity, % remaining activity; conditions: 10 μM compound, 10 μM ATP, duplicate
Experimental: as §1, §2

ABL2/ARG = ABL2/ARG (Homo sapiens, UniProt P42684); assay: Kinase selectivity, % remaining activity; conditions: 10 μM compound, 10 μM ATP, duplicate
ABL2/ARG, sequence (P42684 whole entry): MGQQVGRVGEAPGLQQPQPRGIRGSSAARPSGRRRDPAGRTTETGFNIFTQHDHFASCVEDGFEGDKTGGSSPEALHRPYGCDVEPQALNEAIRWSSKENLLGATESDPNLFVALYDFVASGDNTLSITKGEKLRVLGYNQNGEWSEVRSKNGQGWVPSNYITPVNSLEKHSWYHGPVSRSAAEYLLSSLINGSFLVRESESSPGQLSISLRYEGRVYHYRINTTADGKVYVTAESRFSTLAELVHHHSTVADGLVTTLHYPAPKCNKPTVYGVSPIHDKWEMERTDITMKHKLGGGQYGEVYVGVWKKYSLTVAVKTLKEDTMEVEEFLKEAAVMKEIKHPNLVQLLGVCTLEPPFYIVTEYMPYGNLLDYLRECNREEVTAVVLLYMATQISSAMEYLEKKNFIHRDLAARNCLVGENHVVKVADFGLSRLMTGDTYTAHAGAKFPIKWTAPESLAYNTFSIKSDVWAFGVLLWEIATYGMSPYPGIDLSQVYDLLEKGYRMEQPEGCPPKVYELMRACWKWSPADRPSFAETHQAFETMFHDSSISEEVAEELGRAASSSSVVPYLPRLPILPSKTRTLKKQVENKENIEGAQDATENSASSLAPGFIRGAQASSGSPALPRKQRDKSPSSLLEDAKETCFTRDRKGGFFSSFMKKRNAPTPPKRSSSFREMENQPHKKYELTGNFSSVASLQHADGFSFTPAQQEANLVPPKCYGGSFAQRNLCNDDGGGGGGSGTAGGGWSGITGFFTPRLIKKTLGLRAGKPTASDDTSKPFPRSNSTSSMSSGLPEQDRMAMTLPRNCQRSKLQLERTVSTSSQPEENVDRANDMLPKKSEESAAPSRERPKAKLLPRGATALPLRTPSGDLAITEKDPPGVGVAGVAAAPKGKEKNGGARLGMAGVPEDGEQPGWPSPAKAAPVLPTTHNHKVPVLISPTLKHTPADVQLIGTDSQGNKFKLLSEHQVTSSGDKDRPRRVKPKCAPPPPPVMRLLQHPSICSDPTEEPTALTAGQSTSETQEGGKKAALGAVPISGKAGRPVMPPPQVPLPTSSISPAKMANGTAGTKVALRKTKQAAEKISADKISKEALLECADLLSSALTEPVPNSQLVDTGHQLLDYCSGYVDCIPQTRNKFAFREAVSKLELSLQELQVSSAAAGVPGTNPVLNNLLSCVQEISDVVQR
Experimental: as §1, §2

GSK3B = GSK3B (Homo sapiens, UniProt P49841); assay: Kinase selectivity, % remaining activity; conditions: 10 μM compound, 10 μM ATP, duplicate
Experimental: as §1, §2

CDK5/p25 = CDK5/p25 (Homo sapiens, UniProt Q00535); assay: Kinase selectivity, % remaining activity; conditions: 10 μM compound, 10 μM ATP, duplicate
Experimental: as §1, §2

EGFR = EGFR (Homo sapiens, UniProt P00533); assay: Kinase selectivity, % remaining activity; conditions: 10 μM compound, 10 μM ATP, duplicate
Experimental: as §1, §2

ROCK1 = ROCK1 (Homo sapiens, UniProt Q13464); assay: Kinase selectivity, % remaining activity; conditions: 10 μM compound, 10 μM ATP, duplicate
ROCK1, sequence (Q13464 whole entry): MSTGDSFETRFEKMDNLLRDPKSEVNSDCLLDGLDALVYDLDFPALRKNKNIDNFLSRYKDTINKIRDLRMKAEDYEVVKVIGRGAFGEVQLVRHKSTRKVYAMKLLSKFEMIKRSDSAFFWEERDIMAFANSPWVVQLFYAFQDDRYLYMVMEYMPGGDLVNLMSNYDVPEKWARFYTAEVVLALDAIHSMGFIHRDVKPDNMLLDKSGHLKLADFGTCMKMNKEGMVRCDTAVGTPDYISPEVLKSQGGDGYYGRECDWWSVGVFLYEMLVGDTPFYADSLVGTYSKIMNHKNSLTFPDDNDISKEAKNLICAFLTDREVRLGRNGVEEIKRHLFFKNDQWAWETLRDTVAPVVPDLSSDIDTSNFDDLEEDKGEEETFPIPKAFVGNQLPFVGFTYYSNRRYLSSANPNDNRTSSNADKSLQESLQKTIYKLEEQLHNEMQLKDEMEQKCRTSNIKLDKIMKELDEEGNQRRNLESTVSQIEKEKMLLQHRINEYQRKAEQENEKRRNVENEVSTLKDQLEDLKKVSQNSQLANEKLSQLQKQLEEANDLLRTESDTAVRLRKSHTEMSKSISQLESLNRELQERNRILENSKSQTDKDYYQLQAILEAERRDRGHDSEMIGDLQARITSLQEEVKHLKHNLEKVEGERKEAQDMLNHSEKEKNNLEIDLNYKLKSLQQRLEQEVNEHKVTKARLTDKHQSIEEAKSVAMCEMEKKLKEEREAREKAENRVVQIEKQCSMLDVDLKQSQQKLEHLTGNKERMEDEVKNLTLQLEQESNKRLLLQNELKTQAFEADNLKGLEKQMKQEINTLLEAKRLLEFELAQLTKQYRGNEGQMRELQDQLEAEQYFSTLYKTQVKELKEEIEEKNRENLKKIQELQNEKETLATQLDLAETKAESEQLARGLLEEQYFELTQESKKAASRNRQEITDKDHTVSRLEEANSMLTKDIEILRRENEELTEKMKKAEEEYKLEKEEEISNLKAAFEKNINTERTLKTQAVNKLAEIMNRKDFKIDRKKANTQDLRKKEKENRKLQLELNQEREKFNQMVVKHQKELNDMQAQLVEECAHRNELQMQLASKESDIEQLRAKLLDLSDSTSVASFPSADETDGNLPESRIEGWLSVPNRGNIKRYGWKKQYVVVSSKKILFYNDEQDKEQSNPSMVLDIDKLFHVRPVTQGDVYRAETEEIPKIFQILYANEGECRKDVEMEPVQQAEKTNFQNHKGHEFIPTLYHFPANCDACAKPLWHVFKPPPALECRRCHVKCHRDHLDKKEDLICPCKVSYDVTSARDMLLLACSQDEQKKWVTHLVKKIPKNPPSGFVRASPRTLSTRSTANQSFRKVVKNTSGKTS
Experimental: as §1, §2

TNIK = TNIK (Homo sapiens, UniProt Q9UKE5); assay: Kinase selectivity, % remaining activity; conditions: 10 μM compound, 10 μM ATP, duplicate
Experimental: as §1, §2

FGFR1 = FGFR1 (Homo sapiens, UniProt P11362); assay: Kinase selectivity, % remaining activity; conditions: 10 μM compound, 10 μM ATP, duplicate
Experimental: as §1, §2

CK1g2 = CK1g2 (Homo sapiens, UniProt P78368); assay: Kinase selectivity, % remaining activity; conditions: 10 μM compound, 10 μM ATP, duplicate
Experimental: as §1, §2

P38a/MAPK14 = P38a/MAPK14 (Homo sapiens, UniProt Q16539); assay: Kinase selectivity, % remaining activity; conditions: 10 μM compound, 10 μM ATP, duplicate
Experimental: as §1, §2

CK1e = CK1e (Homo sapiens, UniProt P49674); assay: Kinase selectivity, % remaining activity; conditions: 10 μM compound, 10 μM ATP, duplicate
Experimental: as §1, §2

MSK1/RPS6KA5 = MSK1/RPS6KA5 (Homo sapiens, UniProt O75582); assay: Kinase selectivity, % remaining activity; conditions: 10 μM compound, 10 μM ATP, duplicate
Experimental: as §1, §2

PIM3 = PIM3 (Homo sapiens, UniProt Q86V86); assay: Kinase selectivity, % remaining activity; conditions: 10 μM compound, 10 μM ATP, duplicate
Experimental: as §1, §2

[2] = read-out: % of remaining activity (relative to DMSO)

CK1d (casein kinase 1 delta), sequence (P48730 whole entry): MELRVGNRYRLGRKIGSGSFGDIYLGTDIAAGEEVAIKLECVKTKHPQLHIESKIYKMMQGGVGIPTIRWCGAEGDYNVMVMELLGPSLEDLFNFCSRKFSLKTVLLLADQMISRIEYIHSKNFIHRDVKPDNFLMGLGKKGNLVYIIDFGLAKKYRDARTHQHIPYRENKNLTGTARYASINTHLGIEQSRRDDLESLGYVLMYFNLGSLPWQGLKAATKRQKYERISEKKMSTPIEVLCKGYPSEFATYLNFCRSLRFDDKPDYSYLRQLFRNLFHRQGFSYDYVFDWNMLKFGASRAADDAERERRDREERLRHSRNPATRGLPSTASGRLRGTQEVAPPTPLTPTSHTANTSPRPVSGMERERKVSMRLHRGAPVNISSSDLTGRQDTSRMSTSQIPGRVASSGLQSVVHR

NC(=O)c1c(N)c(C(=O)c2ccc(F)cc2)n2ccccc12 [Comparative Compound 987, 2-amino-3-[(4-fluorophenyl)carbonyl]indolizine-1-carboxamide]
% of remaining activity (relative to DMSO) ([1]; CK1d, 10 μM compound, duplicate, listed as Cmp 987): 5.40% | remaining activity at 10 µM ([1]; CK1d, 10 μM compound, duplicate, read-out: % of remaining activity (relative to DMSO)): 5.71% | IC50 [1]: 310 nM | % of remaining activity (relative to DMSO) (CK1a1; listed as Cmp 987): 17.57% | remaining activity at 10 µM (CK1a1; [2]): 20.3% | % of remaining activity (relative to DMSO) (ALK5/TGFBR1; listed as Cmp 987): 37.80% | remaining activity at 10 µM (ALK5/TGFBR1; [2]): 39.8% | % of remaining activity (relative to DMSO) (CLK2; listed as Cmp 987): 72.17% | remaining activity at 10 µM (CLK2; [2]): 72.7% | % of remaining activity (relative to DMSO) (RIPK2; listed as Cmp 987): 40.46% | remaining activity at 10 µM (RIPK2; [2]): 36.3% | % of remaining activity (relative to DMSO) (KDR/VEGFR2; listed as Cmp 987): 83.06% | remaining activity at 10 µM (KDR/VEGFR2; [2]): 90.3% | % of remaining activity (relative to DMSO) (LCK; listed as Cmp 987): 58.89% | remaining activity at 10 µM (LCK; [2]): 63.9% | % of remaining activity (relative to DMSO) (EPHA2; listed as Cmp 987): 50.05% | remaining activity at 10 µM (EPHA2; [2]): 49.4% | % of remaining activity (relative to DMSO) (PDK1/PDPK1; listed as Cmp 987): 98.31% | remaining activity at 10 µM (PDK1/PDPK1; [2]): 95% | % of remaining activity (relative to DMSO) (PKA; listed as Cmp 987): 33.43% | remaining activity at 10 µM (PKA; [2]): 36.9% | % of remaining activity (relative to DMSO) (CK1g3; listed as Cmp 987): 97.42% | remaining activity at 10 µM (CK1g3; [2]): 101% | % of remaining activity (relative to DMSO) (JNK2; listed as Cmp 987): 63.80% | remaining activity at 10 µM (JNK2; [2]): 60% | % of remaining activity (relative to DMSO) (CK1g1; listed as Cmp 987): 99.58% | remaining activity at 10 µM (CK1g1; [2]): 104% | % of remaining activity (relative to DMSO) (YES/YES1; listed as Cmp 987): 40.00% | remaining activity at 10 µM (YES/YES1; [2]): 42.8% | % of remaining activity (relative to DMSO) (PKCb2; listed as Cmp 987): 66.13% | remaining activity at 10 µM (PKCb2; [2]): 73% | % of remaining activity (relative to DMSO) (ABL2/ARG; listed as Cmp 987): 83.33% | remaining activity at 10 µM (ABL2/ARG; [2]): 88.1% | % of remaining activity (relative to DMSO) (GSK3B; listed as Cmp 987): 68.98% | remaining activity at 10 µM (GSK3B; [2]): 70% | % of remaining activity (relative to DMSO) (CDK5/p25; listed as Cmp 987): 91.79% | remaining activity at 10 µM (CDK5/p25; [2]): 98.2% | % of remaining activity (relative to DMSO) (EGFR; listed as Cmp 987): 34.51% | remaining activity at 10 µM (EGFR; [2]): 32% | % of remaining activity (relative to DMSO) (ROCK1; listed as Cmp 987): 92.49% | remaining activity at 10 µM (ROCK1; [2]): 96.9% | % of remaining activity (relative to DMSO) (TNIK; listed as Cmp 987): 69.49% | remaining activity at 10 µM (TNIK; [2]): 68.5% | % of remaining activity (relative to DMSO) (FGFR1; listed as Cmp 987): 86.54% | remaining activity at 10 µM (FGFR1; [2]): 78.7% | % of remaining activity (relative to DMSO) (CK1g2; listed as Cmp 987): 78.23% | remaining activity at 10 µM (CK1g2; [2]): 77.7% | % of remaining activity (relative to DMSO) (P38a/MAPK14; listed as Cmp 987): 17.83^$ % | remaining activity at 10 µM (P38a/MAPK14; [2]): 17.6% | % of remaining activity (relative to DMSO) (CK1e; listed as Cmp 987): 18.19% | remaining activity at 10 µM (CK1e; [2]): 20.1% | % of remaining activity (relative to DMSO) (MSK1/RPS6KA5; listed as Cmp 987): 87.76% | remaining activity at 10 µM (MSK1/RPS6KA5; [2]): 91.4% | % of remaining activity (relative to DMSO) (PIM3; listed as Cmp 987): 75.10% | remaining activity at 10 µM (PIM3; [2]): 88.8%

O=C1Nc2ccc(I)cc2/C1=C/c1cc(Br)c(O)c(Br)c1 [GW5074]
IC50 [1]: 113 nM
